Experimental data from patent US20140242609A1, “Diagnosis and treatment of kidney stones, methods and compositions therefor” (Washington University, priority 2013, published 2014).

Tests used:
[1] = circulating hormonal levels in SAHA treated mice (ELISA); assay type: in vivo, mouse; settings: SAHA treatments versus vehicle
Procedure: FIG. 24 illustrates circulating hormonal levels in SAHA versus vehicle treated mouse kidneys. Serum PTH (A), 1,25-(OH)2-vitD3 (B) and FGF23 (C) levels were measured with ELISA and shown as mean±SEM, n=5.

CLDN14 mRNA = CLDN14 mRNA levels in primary cultures / freshly isolated mouse TALH cells (real-time PCR); assay type: cell-based; settings: versus vehicle
Procedure: (§1) An immunomagnetic separation method was used to isolate the TAL cells from the mouse kidney (Hou et al., 2009). Antibodies against the TAL cell specific surface antigen, Tamm-Horsfall protein (THP), were coated onto the paramagnetic polystyrene beads (Dynabeads M-280; Dynal), allowing immunoprecipitation of the TAL cells from collagenase digested mouse kidneys. The isolated cells were plated in DMEM medium supplemented with 10% FBS, penicillin/streptomycin, and 1 mM sodium pyruvate for 16 hours, followed by immediate transfection with NFAT or antagomirs.
Total RNA including microRNA was extracted using Trizol (Invitrogen). Cellular mRNA was reverse transcribed using the Superscript-III kit (Invitrogen), followed by real-time PCR amplification using SYBR Green PCR Master Mix (Bio-Rad) and Eppendorf Realplex2S system. The design of claudin-14 primers was described above. The design of pri-miRNA primers was according to Ma et al., (2010). Results were expressed as 2^−ΔCt values with ΔCT=Ctgene−Ctβ-actin.
as §1, with “TALH” for “TAL”, “kidney. (Gong Y,” for “kidney (Hou”, “al. 2012 and Gong Y, et al. 2013)” for “al., 2009).”, “protein,” for “protein (THP),”, “treatment.” for “transfection with NFAT or antagomirs.”
Total RNA including microRNA was extracted using Trizol (Invitrogen). Cellular mRNA was reverse transcribed using the Superscript-III kit (Invitrogen), followed by real-time PCR amplification using SYBR Green PCR Master Mix (Bio-Rad) and Eppendorf Realplex2S system. […] Results were expressed as 2^−ΔCt values with ΔCT=Ctgene−Ctβ-actin. […]
Total RNA including microRNA was extracted using Trizol (Invitrogen). […] Results were expressed as 2^−ΔCt values with ΔCT=Ctgene−Ctβ-actin. […]

[2] = cited from earlier work

O=C(CCCCCCC(=O)Nc1ccccc1)NO [SAHA, Suberanilohydroxamic acid]
circulating 1,25-(OH)2-vitD3 levels [1]: None of these hormones changed | circulating FGF23 levels [1]: None of these hormones changed | circulating PTH levels [1]: None of these hormones changed | CLDN14 mRNA levels, downregulation (CLDN14 mRNA; 0.1 μM): 38% | CLDN14 mRNA levels, downregulation (CLDN14 mRNA; 0.33 μM): 54%

C[C@@H](NCCCc1cccc(C(F)(F)F)c1)c1cccc2ccccc12 [cinacalcet]
time to maximal serum concentration after oral administration ([2]; oral): 1.5 to 3 h | half-life of absorbed cinacalcet ([2]; serum): 30 to 40 h
